From PubChem BioAssay (NCI)
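Briefly, cells in 96-well plates were exposed to five compound concentrations for 48 h, and endpoints were estimated by linear interpolation. GI50 marks 50% less growth. TGI: concentration producing complete growth inhibition.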

Tests used:
Test in all cases: NCI tumour cell line growth inhibition, 48 h
HT29 colon = test system: HT29 colon
TK-10 renal = test system: TK-10 renal
A498 renal = test system: A498 renal
CCRF-CEM leukemia = test system: CCRF-CEM leukemia
MOLT-4 leukemia = test system: MOLT-4 leukemia
RXF 393 renal = test system: RXF 393 renal
SF-539 CNS = test system: SF-539 CNS
KM12 colon = test system: KM12 colon
EKVX NSCLC = test system: EKVX NSCLC
U251 CNS = test system: U251 CNS
SNB-19 CNS = test system: SNB-19 CNS
NCI/ADR-RES ovarian = test system: NCI/ADR-RES ovarian
SR leukemia = test system: SR leukemia
IGROV1 ovarian = test system: IGROV1 ovarian
LOX IMVI melanoma = test system: LOX IMVI melanoma
OVCAR-8 ovarian = test system: OVCAR-8 ovarian
M14 melanoma = test system: M14 melanoma
786-0 renal = test system: 786-0 renal
MALME-3M melanoma = test system: MALME-3M melanoma
SF-295 CNS = test system: SF-295 CNS
SK-OV-3 ovarian = test system: SK-OV-3 ovarian
HCT-116 colon = test system: HCT-116 colon
NCI-H226 lung = test system: NCI-H226 lung
SW-620 colon = test system: SW-620 colon
ACHN renal = test system: ACHN renal
T-47D breast = test system: T-47D breast
SK-MEL-28 melanoma = test system: SK-MEL-28 melanoma
HCC-2998 colon = test system: HCC-2998 colon
PC-3 prostate = test system: PC-3 prostate

## C=C1C(=O)O[C@H]2[C@H]1CC/C(Cn1cc(-c3ccccc3)nn1)=C\CC[C@@]1(C)O[C@@H]21
HT29 colon
  GI50: 1.79 µM
  TGI: 6.3 µM
TK-10 renal
  GI50: 1.21 µM
  TGI: 4.53 µM
A498 renal
  GI50: 7.8 µM
  TGI: 15 µM
CCRF-CEM leukemia
  GI50: 0.992 µM
  TGI: 4.95 µM
MOLT-4 leukemia
  GI50: 1.29 µM
  TGI: 3.53 µM
RXF 393 renal
  GI50: 1.55 µM
  TGI: 4.22 µM
SF-539 CNS
  GI50: 2.01 µM
  TGI: 7.18 µM
KM12 colon
  GI50: 8.48 µM
  TGI: 18.7 µM
EKVX NSCLC
  GI50: 6.87 µM
  TGI: 13.3 µM
U251 CNS
  GI50: 7.96 µM
  TGI: 15.4 µM
SNB-19 CNS
  GI50: 7.87 µM
  TGI: 17 µM
NCI/ADR-RES ovarian
  GI50: 6.17 µM
  TGI: 13.7 µM
SR leukemia
  GI50: 1.06 µM
  TGI: 6.44 µM
IGROV1 ovarian
  GI50: 6.95 µM
  TGI: 14.9 µM
LOX IMVI melanoma
  GI50: 0.808 µM
  TGI: 1.69 µM
OVCAR-8 ovarian
  GI50: 2.31 µM
  TGI: 8.88 µM
M14 melanoma
  GI50: 1.78 µM
  TGI: 7.6 µM
786-0 renal
  GI50: 2.63 µM
  TGI: 8.79 µM
MALME-3M melanoma
  GI50: 1.17 µM
  TGI: 2.84 µM
SF-295 CNS
  GI50: 7.88 µM
  TGI: 15.4 µM
SK-OV-3 ovarian
  GI50: 9.95 µM
  TGI: 17.9 µM
HCT-116 colon
  GI50: 1.17 µM
  TGI: 2.7 µM
NCI-H226 lung
  GI50: 4.6 µM
  TGI: 11.2 µM
SW-620 colon
  GI50: 1.5 µM
  TGI: 6.43 µM
ACHN renal
  GI50: 0.941 µM
  TGI: 2.46 µM
T-47D breast
  GI50: 1.3 µM
  TGI: 3.94 µM
SK-MEL-28 melanoma
  GI50: 1.06 µM
  TGI: 2.48 µM
HCC-2998 colon
  GI50: 6.16 µM
  TGI: 13 µM
PC-3 prostate
  GI50: 5.65 µM
  TGI: 12 µM
